{"source": "patent US20260124226A1", "about": "(priority 2023, published 2026)", "key": {"[1]": {"system": "HG23 cells", "assay": "Cytotoxicity (CC50) run with the norovirus assay"}, "[2]": {"system": "Tacaribe virus", "assay": "microbe, parasite or virus in culture", "format": "cell-based", "conditions": "for EC50: Tacaribe virus strain TRVL 11573, Vero cells"}, "[3]": {"system": "Flu A H5N1 (Low Path)", "assay": "microbe, parasite or virus in culture", "format": "cell-based, influenza A virus", "conditions": "Influenza A virus, H5N1, MDCK"}, "[4]": {"system": "Huh-7", "assay": "EIDD-2749 cytotoxicity", "format": "cell-based, human", "conditions": "Huh-7 cells"}, "[5]": {"system": "Murine Norovirus", "assay": "microbe, parasite or virus in culture", "format": "cell-based", "conditions": "Norwalk virus, RAW264.7"}, "[6]": {"assay": "Plasma stability", "conditions": "mouse plasma, drug 1.00 μM"}, "[7]": {"system": "VEEV", "assay": "microbe, parasite or virus in culture", "format": "cell-based, Venezuelan equine encephalitis virus", "conditions": "Venezuelan equine encephalitis virus"}, "[8]": {"system": "Parainfluenza virus 3", "assay": "organism not typed", "format": "cell-based"}, "[9]": {"system": "Human Norovirus", "assay": "microbe, parasite or virus in culture", "format": "cell-based", "conditions": "HG23"}, "[10]": {"system": "Lassa fever virus", "assay": "organism not typed", "format": "cell-based", "conditions": "Vero"}, "[11]": {"assay": "Mouse PK (plasma, IP and oral)", "conditions": "female, ICR (CD-1)"}, "[12]": {"system": "Vero cells", "conditions": "African green monkey"}, "[13]": {"conditions": "Mammarenavirus tacaribeense, Vero"}}, "note": "Where two headings read alike, the source gives them in different places."}
{"smiles": "O=c1ccn([C@@H]2O[C@](F)(CO)[C@@H](O)[C@H]2O)c(=O)[nH]1", "note": "[EIDD-2749, 4′-fluorouridine]", "values": [{"measurement": "CC50", "setting": "[1]", "value": 100, "unit": "µM"}, {"measurement": "EC90", "setting": "[2]; [13]", "value": 870, "unit": "nM"}, {"measurement": "EC50", "setting": "[2]; [13]", "value": "< 380", "unit": "nM"}, {"measurement": "EC50", "setting": "[2]", "value": 340, "unit": "nM"}, {"measurement": "EC50", "setting": "[3]", "value": "< 380", "unit": "nM"}, {"measurement": "CC50", "setting": "[4]", "value": "> 400", "unit": "µM"}, {"measurement": "EC50", "setting": "[5]", "value": 2200, "unit": "nM"}, {"measurement": "EC90", "setting": "[5]", "value": 7.2, "unit": "µM"}, {"measurement": "half-life", "setting": "[6]", "value": 37, "unit": "min"}, {"measurement": "EC90", "setting": "[7]; Vero 76", "value": 213, "unit": "µM"}, {"measurement": "EC50", "setting": "[7]; Vero 76, VEEV strain TC-83, Vero 76 cells", "value": 7.6, "unit": "µM"}, {"measurement": "EC50", "setting": "[8]", "value": 60.8, "unit": "µM"}, {"measurement": "EC50", "setting": "[8]; MA104", "value": 98.8, "unit": "µM"}, {"measurement": "EC50", "setting": "[9]", "value": 2700, "unit": "nM"}, {"measurement": "EC90", "setting": "[9]", "value": 9.3, "unit": "µM"}, {"measurement": "EC50", "setting": "[10]", "value": 380, "unit": "nM"}, {"measurement": "EC90", "setting": "[10]", "value": 9, "unit": "µM"}, {"measurement": "concentration at 24 h", "setting": "[11]; ip, 10 mg/kg", "value": "0.75 ± 0.1", "unit": "µM"}, {"measurement": "concentration at 24 h", "setting": "[11]; po, 50 mg/kg", "value": "2.8 ± 1.1", "unit": "µM"}, {"measurement": "concentration at 24 h", "setting": "[11]; po, 150 mg/kg", "value": "3.4 ± 1.3", "unit": "µM"}, {"measurement": "concentration at 24 h", "setting": "[11]; po, 500 mg/kg", "value": "9.8 ± 4.2", "unit": "µM"}, {"measurement": "CC50", "setting": "[12]", "value": "> 380", "unit": "µM"}]}
